Consider six molecules from PMC11953442, “PIP2-mediated oligomerization of the endosomal sodium/proton exchanger NHE9” (Nature Communications, 2025).

One data set has as its target T1, NHE9* (Equus caballus, UniProt F7B113).
T1 construct: gene SLC9A9; residues 8-575 of 644, C-terminally truncated; TEV-GFP-TwinStrep-His8 from S. cerevisiae FGY217; GFP kept for thermal shift, cut for cryo-EM; homodimer
T1 sequence (F7B113 8-575): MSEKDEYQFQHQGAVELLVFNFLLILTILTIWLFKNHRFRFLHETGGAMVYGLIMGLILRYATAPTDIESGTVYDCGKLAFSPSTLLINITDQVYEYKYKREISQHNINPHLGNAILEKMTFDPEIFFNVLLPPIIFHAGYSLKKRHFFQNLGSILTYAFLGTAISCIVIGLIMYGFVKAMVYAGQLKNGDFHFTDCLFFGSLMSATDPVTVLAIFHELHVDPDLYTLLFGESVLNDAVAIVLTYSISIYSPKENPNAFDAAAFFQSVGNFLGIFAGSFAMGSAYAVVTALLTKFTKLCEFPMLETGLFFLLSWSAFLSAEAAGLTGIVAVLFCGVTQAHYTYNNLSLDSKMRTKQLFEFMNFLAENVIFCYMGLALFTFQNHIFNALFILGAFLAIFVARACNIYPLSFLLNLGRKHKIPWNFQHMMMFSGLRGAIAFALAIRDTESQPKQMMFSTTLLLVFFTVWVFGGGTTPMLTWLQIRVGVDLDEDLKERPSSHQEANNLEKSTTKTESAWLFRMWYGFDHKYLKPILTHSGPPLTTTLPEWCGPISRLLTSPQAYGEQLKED
Nature of the data set: GFP-based thermal shift assay. The conditions noted are these: 0.1 mg/ml lipid; DDM, CHS, octyl glucoside; NHE9*-GFP fusion. Format: binding.

A further data set deals with T2, EcNhaA-mut2 (Escherichia coli, UniProt P13738, A109T/Q277G/L296M).
T2 construct: gene nhaA; from E. coli Lemo21(DE3); homodimer
Nature of the data set: cryo-EM structure. Format: binding. The conditions noted are these: pH 7.5; DDM; 3 mM cardiolipin added; three lipids at dimer interface; 3.3 A.

Data set [1] deals with the molecule itself. Nature of the data set: cryo-EM structure; NHE9* at pH 6.5, 20 mM Mes-Tris, 150 mM NaCl, 0.003% LMNG, 0.0006% CHS; C2 symmetry; AlphaFold2 multimer model refined into a composite map.
Data set [2] deals with the molecule itself. Nature of the data set: cryo-EM structure; NHE9*CC purified with bovine brain lipid extract, 20 mM Tris-HCl pH 8, 150 mM NaCl, 0.003% LMNG, 0.0006% CHS; C2 symmetry; two PI(3,5)P2 modelled at the dimer interface.
The target in data set [3] is T3, E. coli NhaA WT-like triple mutant (A109T, Q277G, L296M) (E. coli), P13738.
T3 chain: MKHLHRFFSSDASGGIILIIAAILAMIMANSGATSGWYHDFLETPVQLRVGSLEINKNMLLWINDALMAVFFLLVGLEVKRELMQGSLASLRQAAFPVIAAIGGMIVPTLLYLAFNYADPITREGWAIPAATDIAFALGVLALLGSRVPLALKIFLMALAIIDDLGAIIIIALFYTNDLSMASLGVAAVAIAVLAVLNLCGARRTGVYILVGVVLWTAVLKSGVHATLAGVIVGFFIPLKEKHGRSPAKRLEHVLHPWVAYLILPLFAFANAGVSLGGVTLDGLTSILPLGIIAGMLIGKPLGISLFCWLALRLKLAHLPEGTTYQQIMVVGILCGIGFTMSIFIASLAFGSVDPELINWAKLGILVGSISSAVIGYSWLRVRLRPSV
Nature of the data set: cryo-EM structure; NhaA triple-mutant-GFP fusion in DDM with 3 mM cardiolipin (18:1) added, 20 mM Tris-HCl pH 7.5, 150 mM NaCl, 0.03% DDM; three cardiolipins modelled at the dimer interface. The conditions noted are these: remark: other sources report otherwise.

Take `CCCCCCCCCCCCCCCC(=O)OC[C@H](COP(=O)(O)O[C@@H]1[C@H](O)[C@H](OP(=O)(O)O)[C@@H](O)[C@H](OP(=O)(O)O)[C@H]1O)OC(=O)CCCCCCCCCCCCCCC` [PI(3,5)P2 dipalmitoyl]: the dTm on NHE9* is 15 °C.
On the same count and under the same terms, as for `CCCCCCCC(=O)OC[C@H](COP(=O)(O)O[C@@H]1[C@H](O)[C@H](O)[C@@H](OP(=O)(O)O)[C@H](OP(=O)(O)O)[C@H]1O)OC(=O)CCCCCCC` [PI(4,5)P2 dioctanoyl], the figure is 8 °C.
Regarding `CCCCCCCC/C=C\CCCCCCCC(=O)OC[C@H](COP(=O)(O)OCC(O)COP(=O)(O)OC[C@@H](COC(=O)CCCCCCC/C=C\CCCCCCCC)OC(=O)CCCCCCC/C=C\CCCCCCCC)OC(=O)CCCCCCC/C=C\CCCCCCCC` (stereo partly drawn) [cardiolipin (18:1)], the cryo-EM structure entry at EcNhaA-mut2 was “map density supported the modelling of cardiolipin at the dimerization interface”.

B1: E. caballus NHE9* (residues 8 to 575), tag removed (domain or fragment, Equus caballus, UniProt F7B113 8-575, looked up)
chain: MSEKDEYQFQHQGAVELLVFNFLLILTILTIWLFKNHRFRFLHETGGAMVYGLIMGLILRYATAPTDIESGTVYDCGKLAFSPSTLLINITDQVYEYKYKREISQHNINPHLGNAILEKMTFDPEIFFNVLLPPIIFHAGYSLKKRHFFQNLGSILTYAFLGTAISCIVIGLIMYGFVKAMVYAGQLKNGDFHFTDCLFFGSLMSATDPVTVLAIFHELHVDPDLYTLLFGESVLNDAVAIVLTYSISIYSPKENPNAFDAAAFFQSVGNFLGIFAGSFAMGSAYAVVTALLTKFTKLCEFPMLETGLFFLLSWSAFLSAEAAGLTGIVAVLFCGVTQAHYTYNNLSLDSKMRTKQLFEFMNFLAENVIFCYMGLALFTFQNHIFNALFILGAFLAIFVARACNIYPLSFLLNLGRKHKIPWNFQHMMMFSGLRGAIAFALAIRDTESQPKQMMFSTTLLLVFFTVWVFGGGTTPMLTWLQIRVGVDLDEDLKERPSSHQEANNLEKSTTKTESAWLFRMWYGFDHKYLKPILTHSGPPLTTTLPEWCGPISRLLTSPQAYGEQLKED
notes: Endosomal Na+/H+ exchanger NHE9 (SLC9A9), Equus caballus, partially truncated on the C-terminal tail, residues 8 to 575 out of a total of 644; also called SLC9A9; not shown: GFP, C-terminal, cleaved; TwinStrep, C-terminal, cleaved; His8, C-terminal, cleaved
In the case of B1, the “stoichiometry N” value in data set [1] was 2.

B2: E. caballus NHE9*CC (NHE9* L139C-I444C double mutant) (domain or fragment, Equus caballus, UniProt F7B113 8-575, looked up)
chain: MSEKDEYQFQHQGAVELLVFNFLLILTILTIWLFKNHRFRFLHETGGAMVYGLIMGLILRYATAPTDIESGTVYDCGKLAFSPSTLLINITDQVYEYKYKREISQHNINPHLGNAILEKMTFDPEIFFNVLCPPIIFHAGYSLKKRHFFQNLGSILTYAFLGTAISCIVIGLIMYGFVKAMVYAGQLKNGDFHFTDCLFFGSLMSATDPVTVLAIFHELHVDPDLYTLLFGESVLNDAVAIVLTYSISIYSPKENPNAFDAAAFFQSVGNFLGIFAGSFAMGSAYAVVTALLTKFTKLCEFPMLETGLFFLLSWSAFLSAEAAGLTGIVAVLFCGVTQAHYTYNNLSLDSKMRTKQLFEFMNFLAENVIFCYMGLALFTFQNHIFNALFILGAFLAIFVARACNIYPLSFLLNLGRKHKIPWNFQHMMMFSGLRGACAFALAIRDTESQPKQMMFSTTLLLVFFTVWVFGGGTTPMLTWLQIRVGVDLDEDLKERPSSHQEANNLEKSTTKTESAWLFRMWYGFDHKYLKPILTHSGPPLTTTLPEWCGPISRLLTSPQAYGEQLKED
notes: Endosomal Na+/H+ exchanger NHE9 (SLC9A9), Equus caballus, residues 8 to 575 out of a total of 644, with L139C and I444C; also called cysteine variant; not shown: GFP, C-terminal, cleaved; TwinStrep, C-terminal, cleaved; His8, C-terminal, cleaved
Take B2: in data set [2], the “stoichiometry N” value was determined as 2.

B3: E. coli NhaA WT-like triple mutant (A109T, Q277G, L296M), P13738 1-388 (natural protein)
chain: MKHLHRFFSSDASGGIILIIAAILAMIMANSGATSGWYHDFLETPVQLRVGSLEINKNMLLWINDALMAVFFLLVGLEVKRELMQGSLASLRQAAFPVIAAIGGMIVPTLLYLAFNYADPITREGWAIPAATDIAFALGVLALLGSRVPLALKIFLMALAIIDDLGAIIIIALFYTNDLSMASLGVAAVAIAVLAVLNLCGARRTGVYILVGVVLWTAVLKSGVHATLAGVIVGFFIPLKEKHGRSPAKRLEHVLHPWVAYLILPLFAFANAGVSLGGVTLDGLTSILPLGIIAGMLIGKPLGISLFCWLALRLKLAHLPEGTTYQQIMVVGILCGIGFTMSIFIASLAFGSVDPELINWAKLGILVGSISSAVIGYSWLRVRLRPSV
In the case of B3, the stoichiometry N in data set [3] came to 2.

As a reminder, the stoichiometry N is a count of units in the complex or per binding partner.
